Data set [1] in a line: Solubility of the salts in water, N-methylpyrrolidinone and IMS.
A short description of data set [2]: Intrinsic dissolution rate, fibre optic UV probe with SOTAX dissolution apparatus. The data set is classed as physicochemical. The following applies: pH 6.5 buffer, 37° C., 50 mg discs, UV at 260 nm, triplicate. The procedure: The intrinsic dissolution rate was determined by using a fibre optic UV probe, measuring at 260 nm, with a SOTAX dissolution apparatus. Each of the pots in the dissolution batch was filled with 500 ml of pH 6.5 buffer and heated to 37° C. 50 mg Of each compound was weighed out in triplicate. Each of these samples was placed into a 4 mm dye and compressed at 50 psi for 5 minutes to produce suitable discs. These discs were then placed into the dissolution bath and the UV absorbance measured at regular intervals. Standards were prepared at approximately 20 μg/ml concentrations in pH 6.5 buffer. Scans of the background and corresponding standards were taken and a standard recovery check was produced.

The nature of data set [3]: Stability of the salts on storage, assessed by NMR. As to conditions: for stability of the salt: prolonged storage at ambient (400 MHz proton NMR), ammonium salt also vacuum drying at 50° C. overnight.

SMILES strings stand for the structures. Marks after values point to notes of the source that are not given here.

Turning to `COc1nc(C)cnc1NS(=O)(=O)c1cccnc1-c1ccc(-c2nnco2)cc1.N` [Compound (I) Ammonium Salt], in data set [1] (N-methylpyrrolidinone), the “solubility in N-methylpyrrolidinone” value was “is not”. The solubility in water entry in data set [1] (water) is “very water soluble”. Besides, the “IDR (intrinsic dissolution rate)” value in data set [2] turned out to be 0.14 mg/min/cm^2. Moreover, in data set [3], the “stability of the salt” value is on record as “relatively unstable”.

Regarding `COc1nc(C)cnc1NS(=O)(=O)c1cccnc1-c1ccc(-c2nnco2)cc1.NCCO` [Compound (I) Ethanolamine Salt], in data set [2], the “IDR (intrinsic dissolution rate)” value turned out to be 0.84 mg/min/cm^2. The “stability of the salt assessed by NMR” value in data set [3] (2 days at 50° C.) is given as “stable”.

In the case of `COc1nc(C)cnc1[N-]S(=O)(=O)c1cccnc1-c1ccc(-c2nnco2)cc1.[Na+]` [Compound (I) Sodium Salt], in data set [2], the “IDR (intrinsic dissolution rate)” value is reported as 1.37 ^a mg/min/cm^2. The “stability of the salt” value in data set [3] is “very stable”.

With `COc1nc(C)cnc1NS(=O)(=O)c1cccnc1-c1ccc(-c2nnco2)cc1` [Compound (I), N-(3-methoxy-5-methylpyrazin-2-yl)-2-(4-[1,3,4-oxadiazol-2-yl]phenyl)pyridine-3-sulphonamide], in data set [2], the “IDR (intrinsic dissolution rate)” value is on record as 0.05 mg/min/cm^2.

For the origin of these results see patent publication US20120101109A1, “ETHANOLAMINE SALT OF N- (3-METHOXY-5-METHYLPYRAZIN-2YL) -2- (4-[1, 3, 4-OXADIAZOLE-2-YL] PHENYL) PYRIDINE-3- SULPHONAMIDE” (ASTRAZENECA AB, priority 2005, published 2012).
